# Measured values taken from ChEMBL document CHEMBL4680113, “Tigliane Diterpenoids as a New Type of Antiadipogenic Agents Inhibit GRα-Dexras1 Axis in Adipocytes” (J Med Chem, 2019).
# Calls of active or inactive are those of the source. The calls are words filed in the database; no cut-off is given here.
# What was measured:
# [1] = Toxicity in mouse 3T3-L1 cells assessed as reduction in cell viability incubated for 6 days by MTT assay; format: cell-based
# 3T3-L1 [2] = assay: Lipid lowering activity in mouse 3T3-L1 cells assessed as reduction in adipogenic cocktail-induced triglyceride levels at 10 uM incubated for 6 days by GPO-POD assay; format: functional; details: 3T3-L1, 144 h, time 6 day
# 3T3-L1 [3] = assay: Inhibition of cell differentiation in mouse 3T3-L1 cells assessed as reduction in adipogenic cocktail-induced triglyceride levels at 1 uM incubated for 0 to 6 days by GPO-POD assay; format: functional, cell-based; details: time 0-6 day
# 3T3-L1 [4] = assay: Inhibition of adipogenic cocktail-induced C/EBPdelta protein expression in mouse 3T3-L1 cells incubated for 24 hrs by Western blot analysis; format: functional, cell-based
# 3T3-L1 [5] = assay: Inhibition of adipogenic cocktail-induced PPARgamma mRNA expression in mouse 3T3-L1 cells incubated for 24 hrs by RT-qPCR analysis; format: functional, cell-based
# 3T3-L1 [6] = assay: Inhibition of adipogenic cocktail-induced ACC mRNA expression in mouse 3T3-L1 cells at 1 uM after 6 days in presence of GR-alpha siRNA by RT-qPCR analysis; format: functional, cell-based; details: time 6.0 day
# 3T3-L1 [7] = assay: Inhibition of GR-alpha in mouse 3T3-L1 cells assessed as reduction in adipogenic cocktail-induced Dexras1 mRNA expression incubated for 0.5 to 24 hrs by RT-qPCR analysis; format: cell-based; details: time 0.5-24 hrs
# 3T3-L1 [8] = assay: Inhibition of adipogenic cocktail-induced C/EBP-beta mRNA expression in mouse 3T3-L1 cells at 1 to 10 uM incubated for 0.5 hrs by RT-qPCR analysis; format: functional, cell-based; details: dose 1-10 µM
# 3T3-L1 [9] = assay: Inhibition of cell differentiation in mouse 3T3-L1 cells assessed as reduction in adipogenic cocktail-induced triglyceride levels at 1 uM incubated for 0 to 9 days by GPO-POD assay; format: functional, cell-based; details: time 0-9 day
# 3T3-L1 [10] = assay: Lipid lowering activity in mouse 3T3-L1 cells assessed as reduction in adipogenic cocktail-induced triglyceride levels at 1 to 10 uM by Oil-Red O staining; format: functional, cell-based; details: dose 1-10 µM
# 3T3-L1 [11] = assay: Inhibition of adipogenic cocktail-induced C/EBP-delta mRNA expression in mouse 3T3-L1 cells at 1 to 10 uM incubated for 0.5 hrs by RT-qPCR analysis; format: functional, cell-based; details: dose 1-10 µM
# 3T3-L1 [12] = assay: Inhibition of adipogenic cocktail-induced C/EBPalpha mRNA expression in mouse 3T3-L1 cells incubated for 24 hrs by RT-qPCR analysis; format: functional, cell-based
# 3T3-L1 [13] = assay: Inhibition of GR-alpha in mouse 3T3-L1 cells assessed as reduction in adipogenic cocktail-induced Dexras1 protein expression incubated for 0.5 to 24 hrs by Western blot analysis; format: cell-based; details: time 0.5-24 hrs
# 3T3-L1 [14] = assay: Inhibition of adipogenic cocktail-induced PPARgamma mRNA expression in mouse 3T3-L1 cells at 1 uM after 1 day in presence of GR-alpha siRNA by RT-qPCR analysis; format: functional, cell-based
# HepG2 = assay: Lipid lowering activity in human HepG2 cells assessed as reduction in high-glucose induced triglyceride levels at 10 uM incubated for 24 hrs by GPO-POD assay; format: functional, cell-based
# 3T3-L1 [15] = assay: Inhibition of adipogenic cocktail-induced C/EBPdelta mRNA expression in mouse 3T3-L1 cells incubated for 24 hrs by RT-qPCR analysis; format: functional, cell-based
# 3T3-L1 [16] = assay: Inhibition of cell differentiation in mouse 3T3-L1 cells assessed as reduction in adipogenic cocktail-induced triglyceride levels at 1 uM incubated for 0 to 9 days by Oil-Red O staining; format: functional, cell-based; details: time 0-9 day
# 3T3-L1 [17] = assay: Inhibition of adipogenic cocktail-induced GR-beta nuclear translocation in mouse 3T3-L1 cells at 1 uM after 8 hrs by Western blot analysis; format: cell-based
# 3T3-L1 [18] = assay: Inhibition of adipogenic cocktail-induced GR-alpha nuclear translocation in mouse 3T3-L1 cells at 1 uM after 8 hrs by Western blot analysis; format: cell-based
# 3T3-L1 [19] = assay: Inhibition of adipogenic cocktail-induced GR-beta protein expression in mouse 3T3-L1 cells at 1 to 10 uM incubated for 4 to 24 hrs by Western blot analysis; format: functional, cell-based; details: dose 1-10 µM, time 4-24 hrs
# 3T3-L1 [20] = assay: Inhibition of adipogenic cocktail-induced FAS protein expression in mouse 3T3-L1 cells incubated for 6 days by Western blot analysis; format: functional, cell-based; details: time 6.0 day
# 3T3-L1 [21] = assay: Inhibition of GR-alpha in mouse 3T3-L1 cells assessed as reduction in GR-alpha interaction with PPAR-gamma at 1 uM incubated for 8 hrs by ChIP assay; format: cell-based
# 3T3-L1 [22] = assay: Inhibition of adipogenic cocktail-induced C/EBP-delta protein expression in mouse 3T3-L1 cells at 1 to 10 uM incubated for 0.5 hrs by Western blot analysis; format: functional, cell-based; details: dose 1-10 µM
# 3T3-L1 [23] = assay: Inhibition of adipogenic cocktail-induced GR-alpha protein expression in mouse 3T3-L1 cells at 1 to 10 uM incubated for 4 to 24 hrs by Western blot analysis; format: functional, cell-based; details: dose 1-10 µM, time 4-24 hrs
# 3T3-L1 [24] = assay: Inhibition of adipogenic cocktail-induced FAS mRNA expression in mouse 3T3-L1 cells at 1 uM after 6 days in presence of GR-alpha siRNA by RT-qPCR analysis; format: functional, cell-based; details: time 6.0 day
# 3T3-L1 [25] = assay: Toxicity in mouse 3T3-L1 cells assessed as reduction in cell viability at 10 uM incubated for 6 days by LDH release assay; format: cell-based; details: 3t3-l1, 144 h, time 6 day
# 3T3-L1 [26] = assay: Inhibition of adipogenic cocktail-induced GR-beta nuclear translocation in mouse 3T3-L1 cells at 1 uM after 8 hrs by immunofluorescence assay; format: cell-based
# 3T3-L1 [27] = assay: Inhibition of cell differentiation in mouse 3T3-L1 cells assessed as reduction in adipogenic cocktail-induced triglyceride levels at 1 uM incubated for 0 to 3 days by GPO-POD assay; format: functional, cell-based; details: time 0-3 day
# 3T3-L1 [28] = assay: Inhibition of adipogenic cocktail-induced ACC protein expression in mouse 3T3-L1 cells incubated for 6 days by Western blot analysis; format: functional, cell-based; details: time 6.0 day
# 3T3-L1 [29] = assay: Inhibition of adipogenic cocktail-induced C/EBPalpha protein expression in mouse 3T3-L1 cells incubated for 24 hrs by Western blot analysis; format: functional, cell-based
# 3T3-L1 [30] = assay: Inhibition of adipogenic cocktail-induced C/EBP-alpha mRNA expression in mouse 3T3-L1 cells at 1 uM after 1 day in presence of GR-alpha siRNA by RT-qPCR analysis; format: functional, cell-based
# 3T3-L1 [31] = assay: Inhibition of adipogenic cocktail-induced FAS mRNA expression in mouse 3T3-L1 cells incubated for 6 days by RT-qPCR analysis; format: functional, cell-based; details: time 6.0 day
# 3T3-L1 [32] = assay: Lipid lowering activity in mouse 3T3-L1 cells assessed as reduction in adipogenic cocktail induced triglyceride levels at 1 uM incubated for 6 days in presence of GR-alpha siRNA by GPO-POD assay; format: functional, cell-based; details: time 6.0 day
# 3T3-L1 [33] = assay: Inhibition of cell differentiation in mouse 3T3-L1 cells assessed as reduction in adipogenic cocktail-induced triglyceride levels at 1 uM incubated for 0 to 6 days by Oil-Red O staining; format: functional, cell-based; details: time 0-6 day
# 3T3-L1 [34] = assay: Lipid lowering activity in mouse 3T3-L1 cells assessed as reduction in adipogenic cocktail-induced triglyceride levels incubated for 6 days by GPO-POD assay; format: functional, cell-based; details: for EC50: 3T3-L1, 144 h; for inhibition: time 6.0 day
# 3T3-L1 [35] = assay: Lipid lowering activity in mouse 3T3-L1 cells assessed as reduction in adipogenic cocktail-induced triglyceride levels at 1 uM incubated for 6 days by GPO-POD assay; format: functional, cell-based; details: time 6.0 day
# 3T3-L1 [36] = assay: Inhibition of adipogenic cocktail-induced C/EBPbeta protein expression in mouse 3T3-L1 cells incubated for 24 hrs by Western blot analysis; format: functional, cell-based
Compound,IC50 at 6 days [1],inhibition at 10 µM (3T3-L1 [2]),inhibition (3T3-L1 [3]),inhibition (3T3-L1 [4]),inhibition (3T3-L1 [5]),inhibition (3T3-L1 [6]),inhibition (3T3-L1 [7]),inhibition (3T3-L1 [8]),inhibition (3T3-L1 [9]),inhibition (3T3-L1 [10]),inhibition (3T3-L1 [11]),inhibition (3T3-L1 [12]),inhibition (3T3-L1 [13]),inhibition (3T3-L1 [14]),inhibition (HepG2),inhibition (3T3-L1 [15]),inhibition (3T3-L1 [16]),inhibition (3T3-L1 [17]),inhibition (3T3-L1 [18]),inhibition (3T3-L1 [19]),other results
CC(=O)O[C@@H]1C(C)=C[C@H]2[C@@H]3C(C)(C)[C@]3(OC(=O)C(C)C)[C@H](OC(=O)c3ccccc3)[C@@H](C)[C@]2(O)[C@@H]2C=C(C)C(=O)[C@@H]12,> 100000 nM,> 50%,inactive,Dose-dependent effect,Dose-dependent effect,Active,Dose-dependent effect,inactive,inactive,Active,inactive,Dose-dependent effect,Dose-dependent effect,Active,Active,Dose-dependent effect,inactive,inactive,Active,inactive,inhibition (3T3-L1 [20]): Dose-dependent effect; inhibition (3T3-L1 [21]): Active; inhibition (3T3-L1 [22]): inactive; inhibition (3T3-L1 [23]): inactive; inhibition (3T3-L1 [24]): Active; Activity (3T3-L1 [25]): Non-Toxic; inhibition (3T3-L1 [26]): inactive; inhibition (3T3-L1 [27]): Active; inhibition (3T3-L1 [28]): Dose-dependent effect; inhibition (3T3-L1 [29]): Dose-dependent effect; inhibition (3T3-L1 [30]): Active; inhibition (3T3-L1 [31]): Dose-dependent effect; inhibition (3T3-L1 [32]): Active; inhibition (3T3-L1 [33]): inactive; EC50 (3T3-L1 [34]): 320 nM; inhibition (3T3-L1 [34]): Dose-dependent effect; inhibition (3T3-L1 [35]): Active; inhibition (3T3-L1 [36]): Dose-dependent effect
CC1=C[C@@H]2[C@@H](C1=O)[C@H](O)C(C)=C[C@H]1[C@@H]3C(C)(C)[C@]3(OC(=O)C(C)C)[C@H](OC(=O)c3ccccc3)[C@@H](C)[C@]21O,17200 nM,> 50%,inactive,Dose-dependent effect,Dose-dependent effect,Active,Dose-dependent effect,inactive,inactive,Active,inactive,Dose-dependent effect,Dose-dependent effect,Active,Active,Dose-dependent effect,inactive,inactive,Active,inactive,inhibition (3T3-L1 [20]): Dose-dependent effect; inhibition (3T3-L1 [21]): Active; inhibition (3T3-L1 [22]): inactive; inhibition (3T3-L1 [23]): inactive; inhibition (3T3-L1 [24]): Active; Activity (3T3-L1 [25]): Non-Toxic; inhibition (3T3-L1 [26]): inactive; inhibition (3T3-L1 [27]): Active; inhibition (3T3-L1 [28]): Dose-dependent effect; inhibition (3T3-L1 [29]): Dose-dependent effect; inhibition (3T3-L1 [30]): Active; inhibition (3T3-L1 [31]): Dose-dependent effect; inhibition (3T3-L1 [32]): Active; inhibition (3T3-L1 [33]): inactive; EC50 (3T3-L1 [34]): 610 nM; inhibition (3T3-L1 [34]): Dose-dependent effect; inhibition (3T3-L1 [35]): Active; inhibition (3T3-L1 [36]): Dose-dependent effect
